Assay results: patent publication US6472391B2, “Nitrogen-containing heterocyclic compounds” (Millennium Pharmaceuticals, Inc., priority 1996, dated 2002)

SMILES | melting point [°C]
COc1cc2ncnc(N3CCN(C(=S)Nc4ccc([N+](=O)[O-])cc4)CC3)c2cc1OC [Compound 80, 4-(6,7-Dimethoxy-4-quinazolinyl)-N-(4-nitrophenyl)-1-piperazinethiocarboxamide] | 221 to 224
COc1cc2ncnc(N3CCN(C(=O)Nc4ccc(F)c([N+](=O)[O-])c4)CC3)c2cc1OC [Compound 81, 4-(6,7-Dimethoxy-4-quinazolinyl)-N-(4-fluoro-3-nitrophenyl)-1-piperazinecarboxamide] | 243 to 245
COc1cc2ncnc(N3CCN(C(=O)Nc4ccc([N+](=O)[O-])cc4Cl)CC3)c2cc1OC [Compound 82, N-(2-Chloro-4-nitrophenyl)-4-(6,7-dimethoxy-4-quinazolinyl)-1-piperazinecarboxamide] | 194 to 195
COc1cc2ncnc(N3CCN(C(=O)Nc4ccc(Cl)c([N+](=O)[O-])c4)CC3)c2cc1OC [Compound 83, N-(4-Chloro-3-nitrophenyl)-4-(6,7-dimethoxy-4-quinazolinyl)-1-piperazinecarboxamide] | 253 to 255
COc1cc2ncnc(N3CCN(C(=O)Nc4cccc(C#N)c4)CC3)c2cc1OC [Compound 84, N-(3-Cyanophenyl)-4-(6,7-dimethoxy-4-quinazolinyl)-1-piperazinecarboxamide] | 240 to 244
COc1cc2ncnc(N3CCN(C(=S)Nc4ccc(C#N)cc4)CC3)c2cc1OC [Compound 85, N-(4-Cyanophenyl)-4-(6,7-dimethoxy-4-quinazolinyl)-1-piperazinethiocarboxamide] | 247 to 252
COc1cc2ncnc(N3CCN(C(=O)Nc4cccc(C(C)=O)c4)CC3)c2cc1OC [Compound 86, N-(3-Acetylphenyl)-4-(6,7-dimethoxy-4-quinazolinyl)-1-piperazinecarboxamide] | 241 to 245
COc1cc2ncnc(N3CCN(C(=O)Nc4ccc(C(C)=O)cc4)CC3)c2cc1OC [Compound 87, N-(4-acetylphenyl)-4-(6,7-dimethoxy-4-quinazolinyl)-1-piperazinecarboxamide] | 220 to 222
COc1cc2ncnc(N3CCN(C(=S)Nc4ccc(C(=O)c5ccccc5)cc4)CC3)c2cc1OC [Compound 88, N-(4-Benzoylphenyl)-4-(6,7-dimethoxy-4-quinazolinyl)-1-piperazinethiocarboxamide] | 222 to 223
CCOC(=O)c1ccc(NC(=O)N2CCN(c3ncnc4cc(OC)c(OC)cc34)CC2)cc1 [Compound 89, 4-(6,7-dimethoxy-4-quinazolinyl)-N-(4-ethoxycarbonylphenyl)-1-piperazinecarboxamide] | 242 to 246
CCCCOC(=O)c1ccc(NC(=O)N2CCN(c3ncnc4cc(OC)c(OC)cc34)CC2)cc1 [Compound 90, N-(4-Butoxycarbonylphenyl)-4-(6,7-dimethoxy-4-quinazolinyl)-1-piperazinecarboxamide] | 226 to 227
COC(=O)c1cc(NC(=O)N2CCN(c3ncnc4cc(OC)c(OC)cc34)CC2)cc(C(=O)OC)c1 [Compound 91, N-[3,5-Bis(methoxycarbonyl)phenyl]-4-(6,7-dimethoxy-4-quinazolinyl)-1-piperazinecarboxamide] | 252 to 253
COc1cc2ncnc(N3CCN(C(=S)Nc4ccc(S(N)(=O)=O)cc4)CC3)c2cc1OC [Compound 93, 4-(6,7-Dimethoxy-4-quinazolinyl)-N-(4-sulfamoylphenyl)-1-piperazinethiocarboxamide] | 172 to 180
COc1cc2ncnc(N3CCN(C(=S)NCc4ccco4)CC3)c2cc1OC [Compound 94, 4-(6,7-Dimethoxy-4-quinazolinyl)-N-furfuryl-1-piperazinethiocarboxamide] | 189 to 190
COc1cc2ncnc(N3CCN(C(=S)NC(=O)c4ccco4)CC3)c2cc1OC [Compound 95, 4-(6,7-Dimethoxy-4-quinazolinyl)-N-(2-furoyl)-1-piperazinethiocarboxamide] | 187 to 189
COc1cc2ncnc(N3CCN(C(=O)NCCc4cccs4)CC3)c2cc1OC [Compound 96, 4-(6,7-Dimethoxy-4-quinazolinyl)-N-[2-(2-thienyl)ethyl]-1-piperazinecarboxamide] | 184 to 185
COc1cc2ncnc(N3CCN(C(=S)Nc4cccnc4)CC3)c2cc1OC [Compound 97, 4-(6,7-Dimethoxy-4-quinazolinyl)-N-(3-pyridyl)-1-piperazinethiocarboxamide] | 169 to 171
COc1cc2ncnc(N3CCN(C(=S)Nc4ccc5c(O)nnc(O)c5c4)CC3)c2cc1OC [Compound 99, N-(1,4-Dihydroxy-6-phthalazinyl)-4-(6,7-dimethoxy-4-quinazolinyl)-1-piperazinethiocarboxamide] | 153 to 155
COc1cc2ncnc(N3CCN(C(=O)Nc4ccc(CN5CCCCC5)cc4)CC3)c2cc1OC [Compound 100, 4-(6,7-Dimethoxy-4-quinazolinyl)-N-[4-(piperidinomethyl)phenyl]-1-piperazinecarboxamide] | 122 to 123

SMILES | melting point [°C]
O=C(Nc1ccc([N+](=O)[O-])cc1)N1CCN(c2ncnc3ccccc23)CC1 [Compound 103, N-(4-Nitrophenyl)-4-(4-quinazolinyl)-1-piperazinecarboxamide] | 155 to 158
O=C(Nc1ccc(Oc2ccccc2)cc1)N1CCN(c2ncnc3ccccc23)CC1 [Compound 104, N-(4-Phenoxyphenyl)-4-(4-quinazolinyl)-1-piperazinecarboxamide] | 74 to 75
CCOc1cc2ncnc(N3CCN(C(=O)Nc4ccc(Oc5ccccc5)cc4)CC3)c2cc1OCC [Compound 106, 4-(6,7-Diethoxy-4-quinazolinyl)-N-(4-phenoxyphenyl)-1-piperazinecarboxamide] | 187 to 190
COc1cc2c(N3CCN(C(=O)Nc4ccc([N+](=O)[O-])cc4)CC3)ncnc2c(OC)c1OC [Compound 107, N-(4-Nitrophenyl)-4-(6,7,8-trimethoxy-4-quinazolinyl)-1-piperazinecarboxamide] | 197 to 199
COc1cc2c(N3CCN(C(=O)Nc4ccc(Oc5ccccc5)cc4)CC3)ncnc2c(OC)c1OC [Compound 108, N-(4-Phenoxyphenyl)-4-(6,7,8-trimethoxy-4-quinazolinyl)-1-piperazinecarboxamide] | 83 to 84
CCNc1cc2ncnc(N3CCN(C(=O)Nc4ccc(Oc5ccccc5)cc4)CC3)c2cc1[N+](=O)[O-] [Compound 109, 4-(7-Ethylamino-6-nitro-4-quinazolinyl)-N-(4-phenoxyphenyl)-1-piperazinecarboxamide] | 242 to 244
O=C(Nc1ccc([N+](=O)[O-])cc1)N1CCN(c2nc(-c3ccccc3)nc3ccccc23)CC1 [Compound 110, 4-(2-Phenyl-4-quinazolinyl)-N-(4-nitrophenyl)-1-piperazinecarboxamide] | 236 to 238
COc1cc2nc(-c3ccccc3)nc(N3CCN(C(=O)Nc4ccc([N+](=O)[O-])cc4)CC3)c2cc1OC [Compound 111, 4-(6,7-Dimethoxy-2-phenyl-4-quinazolinyl)-N-(4-nitrophenyl)-1-piperazinecarboxamide] | 156 to 157
COc1cc2ncnc(N3CCCN(C(=O)Nc4ccc([N+](=O)[O-])cc4)CC3)c2cc1OC [Compound 112, 4-(6,7-Dimethoxy-4-quinazolinyl)-N-(4-nitrophenyl)-1-homopiperazinecarboxamide] | 243 to 244
COc1cc2ccnc(N3CCN(C(=O)Nc4ccc([N+](=O)[O-])cc4)CC3)c2cc1OC [Compound 113, 4-(6,7-Dimethoxy-1-isoquinolyl)-N-(4-nitrophenyl)-1-piperazinecarboxamide] | 247 to 248
COc1cc2cc(Cl)nc(N3CCN(C(=O)Nc4ccc([N+](=O)[O-])cc4)CC3)c2cc1OC [Compound 114, 4-(3-Chloro-6,7-dimethoxy-1-isoquinolyl)-N-(4-nitrophenyl)-1-piperazinecarboxamide] | 227 to 228
O=C(Nc1ccc(Oc2ccccc2)cc1)N1CCN(c2ccnc3cc(Cl)ccc23)CC1 [Compound 115, 4-(7-Chloro-4-quinolyl)-N-(4-phenoxyphenyl)-1-piperazinecarboxamide] | 159 to 161
COc1cc2ncnc(N3CCN(C(=O)N(c4ccccc4)c4ccccc4)CC3)c2cc1OC [Compound 116, 4-(6,7-Dimethoxy-4-quinazolinyl)-N,N-diphenyl-1-piperazinecarboxamide] | 196 to 197
COc1cc2ncnc(N3CCN(C(=O)Nc4ccc(N5CCOCC5)cc4)CC3)c2cc1OC [Compound 117, 4-(6,7-Dimethoxy-4-quinazolinyl)-N-(4-morpholinophenyl)-1-piperazinecarboxamide] | 254 to 256
COc1cc2ncnc(N3CCN(C(=O)Nc4ccc5[nH]ccc5c4)CC3)c2cc1OC [Compound 118, 4-(6,7-Dimethoxy-4-quinazolinyl)-N-(5-indolyl)-1-piperazinecarboxamide] | 209 to 210
COc1cc2ncnc(N3CCN(C(=O)NCCc4ccc(Cl)cc4)CC3)c2cc1OC [Compound 119, N-[2-(4-Chlorophenyl)ethyl]-4-(6,7-dimethoxy-4-quinazolinyl)-1-piperazinecarboxamide] | 177 to 178
COc1cc2ncnc(N3CCN(C(=O)NCCc4ccc(Br)cc4)CC3)c2cc1OC [Compound 120, N-[2-(4-Bromophenyl)ethyl]-4-(6,7-dimethoxy-4-quinazolinyl)-1-piperazinecarboxamide] | 174 to 175
Cn1c(=O)n(C)c2cc3c(N4CCN(C(=O)Nc5ccc(Oc6ccccc6)cc5)CC4)ncnc3cc21 [Compound 121, 4-(1,3-Dihydro-1,3-dimethyl-2-oxo-2H-imidazo[4,5-g]quinazolin-8-yl)-N-(4-phenoxyphenyl)-1-piperazinecarboxamide] | 250 to 255
CCn1c(=O)n(CC)c2cc3c(N4CCN(C(=O)Nc5ccc(Oc6ccccc6)cc5)CC4)ncnc3cc21 [Compound 122, 4-(1,3-Diethyl-1,3-dihydro-2-oxo-2H-imidazo[4,5-g]quinazolin-8-yl)-N-(4-phenoxyphenyl)-1-piperazinecarboxamide] | 168 to 169
